# From ChEMBL document CHEMBL3351940, “Antioxidant effects of the highly-substituted carbazole alkaloids and their related carbazoles” (Bioorg Med Chem Lett, 2014)
# Experiments:
# [1] = Antioxidant activity assessed as ABTS+ radical scavenging capacity after 16 hrs by UV spectrophotometry; format: physicochemical
# [2] = Antioxidant activity assessed as DPPH radical scavenging capacity after 30 mins by UV spectrophotometry; format: physicochemical
# [3] = Antioxidant activity assessed as reduction of Cu2+ to Cu+ after 3 mins by PAO-SO method; format: physicochemical; settings: 0.05 h
# [4] = Cytotoxicity against human HCT116 cells assessed as reduction cell viability at 100 uM after 48 hrs by MTT assay; format: cell-based; settings: hct-116, 48 h
Structure (SMILES),IC50 [1] [µM],IC50 [2] [µM],Activity [3],Activity [4]
CCCCCCCc1c(C)c(O)cc2c1[nH]c1ccccc12,159,12,2803 µmol/L,Non-toxic
CC(C)=CCc1ccc2[nH]c3c(c2c1)C(=O)C(=O)C(C)=C3CC(C)O (centres undefined),> 500,> 50,1182 µmol/L,Toxic
Cc1c(O)cc2c([nH]c3ccccc32)c1CC(C)O (centres undefined),161,12,2881 µmol/L,Non-toxic
CC(C)=CCc1ccc2[nH]c3c(CC(C)O)c(C)c(O)cc3c2c1 (centres undefined),175,12,2411 µmol/L,Toxic
Cc1c(C)c2c(c(C)c1O)CC[C@@](C)(CCC[C@H](C)CCC[C@H](C)CCCC(C)C)O2 [ALPHA-TOCOPHEROL],211,15.4,Active,Non-toxic
CC1=NN(c2ccccc2)C(=O)C1 [EDARAVONE],214,19.7,3096 µmol/L,Non-toxic
CCCOC(=O)c1cc(O)c(O)c(O)c1 [PROPYL GALLATE],188,6.1,3096 µmol/L,Non-toxic

# Stronger by IC50 [1], values ahead:
IC50 [1] [µM],IC50 [2] [µM],Activity [3],Structure (SMILES),Activity [4]
116,9.8,3413 µmol/L,CC[C@H](C)CC/C(C)=C/c1c(C)c(O)cc2c1[nH]c1c(O)ccc(CO)c12,Non-toxic
112,9.9,3567 µmol/L,C/C(=C\c1c(C)c(O)cc2c1[nH]c1c(O)ccc(CO)c12)CCC(C)C,Non-toxic
57.1,7.6,4580 µmol/L,CC[C@H](C)CC/C(C)=C/c1c(C)c(O)cc2c1[nH]c1c(O)ccc(C=O)c12,Non-toxic
52.6,7.1,4584 µmol/L,C/C(=C\c1c(C)c(O)cc2c1[nH]c1c(O)ccc(C=O)c12)CCC(C)C,Non-toxic
